Experimental data taken from ChEMBL document CHEMBL6087386, “Radioprotective effectiveness of a novel delta-tocotrienol prodrug on mouse hematopoietic system against 60Co gamma-ray irradiation through inducing granulocyte-colony stimulating factor production” (Eur J Med Chem, 2024).
Activity calls are given as the source filed them. The calls are words filed in the database; no cut-off is given here.

Legend:
[1] = Stability in C57BL/6J mouse whole blood assessed as half-life; assay type: ADME, tissue-based
[2] = MRT (0 to t) in ICR mouse at 100 mg/kg, iv measured upto 24 hrs by LC-MS/MS analysis; assay type: ADME, organism-based; conditions: in vivo
[3] = Half life in ICR mouse at 100 mg/kg, iv measured upto 24 hrs by LC-MS/MS analysis; assay type: ADME, organism-based; conditions: in vivo
[4] = test system: Mus musculus; assay: Radioprotective activity in C57BL/6J mouse assessed as splenomegaly at 100 mg/kg, sc preincubated with compound for 24 hrs followed by total body irradiation with 6.5 Gy and measured after 10 days; assay type: functional, organism-based; conditions: time 11.0 day
[5] = test system: Mus musculus; assay: Radioprotective activity in C57BL/6J mouse assessed as increase in long term hematopoietic stem cell frequency in LSK compartment at 100 mg/kg, sc preincubated with compound for 24 hrs followed by total body irradiation with 6.5 Gy and measured after 30 days; assay type: functional, organism-based; conditions: time 31.0 day
[6] = Tmax in ICR mouse at 100 mg/kg, iv measured upto 24 hrs by LC-MS/MS analysis; assay type: ADME, organism-based; conditions: in vivo
[7] = test system: Mus musculus; assay: Radioprotective activity in C57BL/6J mouse assessed as increase in percentage of LK cells at 100 mg/kg, sc preincubated with compound for 24 hrs followed by total body irradiation with 6.5 Gy and measured after 30 days; assay type: functional, organism-based; conditions: time 31.0 day
[8] = test system: Mus musculus; assay: Radioprotective activity in C57BL/6J mouse assessed as increase in RBC count at 100 mg/kg, sc preincubated with compound for 24 hrs followed by total body irradiation with 6.5 Gy and measured after 30 days; assay type: functional, organism-based; conditions: time 31.0 day
[9] = Volume of distribution at steady state in ICR mouse at 100 mg/kg, iv measured upto 24 hrs by LC-MS/MS analysis; assay type: ADME, organism-based; conditions: in vivo, iv, 100 mg/kg, 24 h
[10] = test system: Mus musculus; assay: Radioprotective activity in C57BL/6J mouse assessed as increase in G-CSF production in serum at 100 mg/kg, sc; assay type: functional, organism-based; conditions: time 24.0 hrs
[11] = test system: Mus musculus; assay: Radioprotective activity in C57BL/6J mouse assessed as increase in percentage of LSK cells at 100 mg/kg, sc preincubated with compound for 24 hrs followed by total body irradiation with 6.5 Gy and measured after 30 days; assay type: functional, organism-based; conditions: time 31.0 day
[12] = Cmax in ICR mouse at 100 mg/kg, sc measured upto 24 hrs by LC-MS/MS analysis; assay type: ADME, organism-based; conditions: in vivo
[13] = Clearance in ICR mouse at 100 mg/kg, iv measured upto 24 hrs by LC-MS/MS analysis; assay type: ADME, organism-based; conditions: in vivo
[14] = test system: Mus musculus; assay: Radioprotective activity in C57BL/6J mouse assessed as increase in multipotent progenitor frequency in LSK compartment at 100 mg/kg, sc preincubated with compound for 24 hrs followed by total body irradiation with 6.5 Gy and measured after 30 days; assay type: functional, organism-based; conditions: time 31.0 day
[15] = Cmax in ICR mouse at 100 mg/kg, iv measured upto 24 hrs by LC-MS/MS analysis; assay type: ADME, organism-based; conditions: in vivo
[16] = test system: Mus musculus; assay: Radioprotective activity in C57BL/6J mouse assessed as effect on LT-HSC number at 100 mg/kg, sc preincubated with compound for 24 hrs followed by total body irradiation with 6.5 Gy and measured after 30 days; assay type: functional, organism-based; conditions: time 31.0 day
[17] = test system: Mus musculus; assay: Radioprotective activity in C57BL/6J mouse assessed as increase in platelet count at 100 mg/kg, sc preincubated with compound for 24 hrs followed by total body irradiation with 6.5 Gy and measured on day 10; assay type: functional, organism-based; conditions: time 11.0 day
[18] = test system: Mus musculus; assay: Radioprotective activity in C57BL/6J mouse assessed as […] in survival rate at 100 mg/kg, sc preincubated with compound for 24 hrs followed by total body irradiation with 9.5 Gy and measured after 30 days by Kaplan-meier plot analysis; assay type: functional, organism-based; conditions: time 31.0 day
[19] = Tmax in ICR mouse at 100 mg/kg, sc measured upto 24 hrs by LC-MS/MS analysis; assay type: ADME, organism-based; conditions: in vivo
[20] = Bioavailability in ICR mouse at 100 mg/kg, sc measured upto 24 hrs by LC-MS/MS analysis; assay type: ADME, organism-based; conditions: in vivo
[21] = test system: Mus musculus; assay: Radioprotective activity in C57BL/6J mouse assessed as increase in ST-HSC number at 100 mg/kg, sc preincubated with compound for 24 hrs followed by total body irradiation with 6.5 Gy and measured after 30 days; assay type: functional, organism-based; conditions: time 31.0 day
[22] = test system: Mus musculus; assay: Radioprotective activity in C57BL/6J mouse assessed as effect on splenic LT-HSCs number at 100 mg/kg, sc preincubated with compound for 24 hrs followed by total body irradiation with 6.5 Gy and measured after 10 days; assay type: functional, organism-based; conditions: time 11.0 day
[23] = test system: Mus musculus; assay: Radioprotective activity in C57BL/6J mouse assessed as increase in neutrophils at 100 mg/kg, sc preincubated with compound for 24 hrs followed by total body irradiation with 6.5 Gy and measured after 30 days; assay type: functional, organism-based; conditions: time 31.0 day
[24] = test system: Mus musculus; assay: Induction of G-CSF production in C57BL/6J mouse model at 100 mg/kg, sc measured for 24 hrs by ELISA analysis; assay type: functional, organism-based
[25] = Drug concentration in C57BL/6J mouse plasma at 100 mg/kg, sc measured after 24 hrs; assay type: ADME, organism-based; conditions: in vivo
[26] = test system: Mus musculus; assay: Radioprotective activity in C57BL/6J mouse assessed as survival rate at 100 mg/kg, sc preincubated with compound for 24 hrs followed by total body irradiation with 9.5 Gy and measured after 30 days by Kaplan-meier plot analysis; assay type: functional; conditions: light or radiation study, 744 h, time 31 day
[27] = Stability in […] human plasma assessed as half-life; assay type: ADME, cell-free
[28] = MRT (0 to t) in ICR mouse at 100 mg/kg, sc measured upto 24 hrs by LC-MS/MS analysis; assay type: ADME, organism-based; conditions: in vivo
[29] = test system: Mus musculus; assay: Radioprotective activity in C57BL/6J mouse assessed as increase in G-CSF production in serum at 100 mg/kg, sc measured for 72 hrs; assay type: functional, organism-based
[30] = test system: Mus musculus; assay: Radioprotective activity in C57BL/6J mouse assessed as increase in number of total bone marrow cells at 100 mg/kg, sc preincubated with compound for 24 hrs followed by total body irradiation with 6.5 Gy and measured after 30 days; assay type: functional, organism-based; conditions: time 31.0 day
[31] = Stability in C57BL/6J mouse plasma assessed as half-life; assay type: ADME, cell-free
[32] = test system: Mus musculus; assay: Radioprotective activity in C57BL/6J mouse assessed as fold increase in total number of splenic nucleated cells at 100 mg/kg, sc preincubated with compound for 24 hrs followed by total body irradiation with 6.5 Gy and measured after 10 days; assay type: functional; conditions: time 11 day
[33] = test system: Mus musculus; assay: Radioprotective activity in C57BL/6J mouse assessed as increase in G-CSF production in serum at 100 mg/kg, sc measured for 6 to 24 hrs; assay type: functional, organism-based; conditions: time 6-24 hrs
[34] = test system: Mus musculus; assay: Radioprotective activity in C57BL/6J mouse assessed as increase in WBC count at 100 mg/kg, sc preincubated with compound for 24 hrs followed by total body irradiation with 6.5 Gy and measured after 30 days; assay type: functional, organism-based; conditions: time 31.0 day
[35] = test system: Mus musculus; assay: Radioprotective activity in C57BL/6J mouse assessed as survival rate at 100 mg/kg, sc preincubated with compound for 24 hrs followed by total body irradiation with 8.5 Gy and measured after 30 days by Kaplan-meier plot analysis; assay type: functional; conditions: Mus musculus, C57BL/6J, light or radiation study, 744 h, time 31 day
[36] = test system: Mus musculus; assay: Radioprotective activity in C57BL/6J mouse assessed as increase in MPP number at 100 mg/kg, sc preincubated with compound for 24 hrs followed by total body irradiation with 6.5 Gy and measured after 30 days; assay type: functional, organism-based; conditions: time 31.0 day
[37] = test system: Mus musculus; assay: Radioprotective activity in C57BL/6J mouse assessed as survival rate at 100 mg/kg, sc preincubated with compound for 24 hrs followed by total body irradiation with 8.5 Gy and measured after 20 days by Kaplan-meier plot analysis; assay type: functional; conditions: light or radiation study, 504 h, time 21 day
[38] = test system: Mus musculus; assay: Radioprotective activity in C57BL/6J mouse assessed as increase in spleen coefficient at 100 mg/kg, sc preincubated with compound for 24 hrs followed by total body irradiation with 6.5 Gy and measured after 10 days; assay type: functional, organism-based; conditions: time 11.0 day
[39] = test system: Mus musculus; assay: Radioprotective activity in C57BL/6J mouse assessed as increase in RBC count at 100 mg/kg, sc preincubated with compound for 24 hrs followed by total body irradiation with 6.5 Gy and measured on day 14; assay type: functional, organism-based; conditions: time 15.0 day
[40] = test system: Mus musculus; assay: Radioprotective activity in C57BL/6J mouse assessed as increase in neutrophils at 100 mg/kg, sc preincubated with compound for 24 hrs followed by total body irradiation with 6.5 Gy and measured on day 7; assay type: functional, organism-based; conditions: time 8.0 day
[41] = MRT (0 to infinity) in ICR mouse at 100 mg/kg, iv measured upto 24 hrs by LC-MS/MS analysis; assay type: ADME, organism-based; conditions: in vivo, iv, 100 mg/kg, 24 h
[42] = test system: Mus musculus; assay: Radioprotective activity in C57BL/6J mouse assessed as increase in platelets count at 100 mg/kg, sc preincubated with compound for 24 hrs followed by total body irradiation with 6.5 Gy and measured after 30 days; assay type: functional, organism-based; conditions: time 31.0 day

CC(C)=CCC/C(C)=C/CC/C(C)=C/CC[C@]1(C)CCc2cc(OC(=O)CCC(=O)O)cc(C)c2O1
half-life [1]: 9.3 min | MRT last at 24 h [2]: 1.36 h | half-life [3]: 624 min | Activity [4]: Active | Activity [5]: Active | Tmax [6]: 4.98 min | Activity [7]: Active | Activity [8]: Active | Vdss [9]: 336.58 mL/kg | Activity [10]: Time-dependent-effect | Activity [11]: Active | Cmax [12]: 2.02 ng/mL | CL [13]: 225.32 mL/h/kg | Activity [14]: Active | Cmax [15]: 5.15 ng/mL | Activity [16]: inactive | Activity [17]: Active | Activity [18]: inactive | Tmax [19]: 4.98 min | F [20]: 13.86% | Activity [21]: Active | Activity [22]: Active | Activity [23]: Active | Activity [24]: Active | Drug uptake [25]: Active | survival at 100 mg/kg [26]: 90% | half-life [27]: 115 min | MRT last at 24 h [28]: 11.9 h | Activity [29]: Active | Activity [30]: Active | half-life [31]: 224 min | fold change (FC) [32]: ~2.5 | Activity [33]: Active | Activity [34]: Active | survival at 100 mg/kg [35]: 90% | Activity [36]: Active | survival at 100 mg/kg [37]: 70% | Activity [38]: Active | Activity [39]: Active | Activity [40]: Active | MRT [41]: 3.47 h | Activity [42]: Active
